Results taken from PMC7601674, “CoQ10 Deficient Endothelial Cell Culture Model for the Investigation of CoQ10 Blood–Brain Barrier Transport” (Journal of Clinical Medicine, 2020).

Columns and labels:
[1] = tested on: bEnd.3 cells (mouse BBB cell line) monolayer; assay: CoQ10 transport assay across bEnd.3 monolayer on Transwell filters (control or pABA treated); conditions: for A to B CoQ10 transport, % of control / Apical to Basal CoQ10 transport, % of control: BLT-1 10 µM, FPS-ZM1 1 µM; for A to B CoQ10 transport, % of control: verapamil 0.1 mM, added 2 h before, 60 min; for Apical to Basal CoQ10 transport, % of control: RAP 0.5 µM; for Effect on Basal to Apical transport of CoQ10: antioxidant 50 µM co-administered with CoQ10 10 µM; for Effect on B to A transport of CoQ10: pABA treated bEnd.3, antioxidant 50 µM
Protocol: (§1) Unless stated, CoQ10 was pre-treated by incubation in serum at a concentration of 20 µM for 45 min at 37 °C, and added to assay buffer on either the Apical (blood facing) or Basal (brain facing) side of the cells on Transwell filters. The final concentration of CoQ10 used in the assays was 10 µM in serum (50% v/v). Cells were then incubated for 60 min on an orbital shaker (100 rpm) at 37 °C. Samples of the Apical (A) and Basal (B) media were then taken for analysis to calculate A to B (blood-to-brain) or B to A (brain-to-blood) Papp in cm/s, as previously described by Patabendige et al.. CoQ10 concentrations were determined using the LC-MS/MS method described above (Section 2.2).
(§2) Inhibitors of transport were added to both Apical and Basal sides of the cells for 2 h prior to assay. Antioxidants were pre-incubated with CoQ10 in serum for 45 min prior to assay, and were present in the assay buffer. Compounds used were; SR-B1 inhibitor, blocker of lipid transport-1 (BLT-1; 10 µmol/L)
As previously described, para-aminobenzoic acid (pABA) was used as a pharmacological reagent to induce CoQ10 deficiency. The mechanism of action is via competitive inhibition of polyprenyl-4-hydroxybenzoate transferase (Coq2p), a key enzyme in the later stages of the CoQ10 biosynthetic pathway. Following the method of Duberley et al., 1 mmol/L pABA was added to culture medium for 5 days prior to assay.

[2] = tested on: bEnd.3 BBB model; conditions: cited from earlier work
[3] = set-up: method as in PMID 11259830; conditions: cited from earlier work
[4] = tested on: primary porcine brain endothelial cells (PBEC) monolayer; assay: CoQ10 transport assay across PBEC monolayer on Transwell filters; conditions: PBEC; RAP 0.5 µM applied to the basal (brain side)
Protocol: Primary porcine brain endothelial cells (PBEC) were isolated and cultured as previously published. Briefly, cells were seeded at 10 × 10^4 cells/cm^2 on collagen and fibronectin-coated polycarbonate Transwell filters (Corning 0.4 µm pore size) in 12-well plates, and grown in low glucose DMEM (Sigma D5546) supplemented with bovine plasma-derived serum (10% v/v; BPDS, First Link UK), glutamine (2 mM), heparin (125 µg/mL), penicillin (100 U/mL) and streptomycin (100 µg/mL), at 37 °C in a 5% CO2 incubator. PBECs were grown in non-contact co-culture above primary rat astrocytes until confluent, then supplemented with hydrocortisone (550 nM), 8-4-chlorophenylthio-cAMP (250 µM) and RO-20-1724 (17.5 µM) in serum-free medium for a further 3 days. Before assays of CoQ10 transport, PBECs were separated from astrocytes by moving transwell filters to fresh culture plates.
as §1, §2

[5] = pABA treated (1 mM; 5 days) bEnd.3

Molecule	Effect on “net” transport of CoQ10 ([1]; control bEnd.3)	Effect on “net” transport of CoQ10 [1, 5]	Apical to Basal CoQ10 transport, % of control [1, 5]	Permeability to FITC-dextran [2]	other results
CCCCCCC1CCCC1=NNC(N)=S (centres unmarked) [BLT-1, blocker of lipid transport-1]	“net” −ve transport	no significant effect	no effect	–	A to B CoQ10 transport, % of control ([1]; control bEnd.3): 44 % of control
N#CC(C#N)=NNc1ccc(OC(F)(F)F)cc1 [FCCP]	–	–	–	doubled	–
O=C(c1ccc(Cl)cc1)N(Cc1ccccc1)C1CCCCC1 [FPS-ZM1]	“net” −ve transport	abolished “net” A to B transport	45 % of control	–	A to B CoQ10 transport, % of control ([1]; control bEnd.3): 50 % of control
Cc1c(C)c2c(c(C)c1O)CCC(C)(C(=O)O)O2 (centres unmarked) [Trolox]	–	–	–	–	Effect on Basal to Apical transport of CoQ10 ([1]; control bEnd.3): increased Basal to Apical transport of CoQ10; Effect on B to A transport of CoQ10 [1]: enhanced B to A transport
COC1=C(OC)C(=O)C(CCCCCCCCCCO)=C(C)C1=O [idebenone]	–	–	–	–	Direction of transport [1]: transport toward the brain side (A to B) greater than efflux to blood (B to A); Permeability (Papp) compared to CoQ10, A to B direction [1]: 280 ×; Permeability (Papp) compared to CoQ10, B to A direction [1]: 150 ×; LogP [3]: less than 5
CC[C@H]1/C=C/C=C/C[C@@H](C)[C@H](O)[C@@](C)(O)C(=O)[C@@H](C)[C@H](O)[C@@H](C)C(=O)[C@@H](C)[C@H](O)[C@@H](C)/C=C/C(=O)O[C@@H]2[C@H](C)[C@H](CC1)O[C@]1(CC[C@H](C)[C@H](C[C@@H](C)O)O1)[C@H]2C [oligomycin]	–	–	–	doubled	–
C=C(C)[C@H]1Cc2c(ccc3c2O[C@@H]2COc4cc(OC)c(OC)cc4[C@@H]2C3=O)O1 [rotenone]	–	–	–	doubled	–
Cc1c(C)c2c(c(C)c1O)CC[C@@](C)(CCC[C@H](C)CCC[C@H](C)CCCC(C)C)O2 [α-tocopherol]	–	–	–	–	Effect on Basal to Apical transport of CoQ10 ([1]; control bEnd.3): increased Basal to Apical transport of CoQ10; Effect on B to A transport of CoQ10 [1]: enhanced B to A transport
receptor-associated protein (protein, UniProt P30533 35-357, looked up) Alpha-2-macroglobulin …: YSREKNQPKPSPKRESGEEFRMEKLNQLWEKAQRLHLPPVRLAELHADLKIQERDELAWKKLKLDGLDEDGEKEARLIRNLNVILAKYGLDGKKDARQVTSNSLSGTQEDGLDDPRLEKLWHKAKTSGKFSGEELDKLWREFLHHKEKVHEYNVLLETLSRTEEIHENVISPSDLSDIKGSVLHSRHTELKEKLRSINQGLDRLRRVSHQGYSTEAEFEEPRVIDLWDLAQSANLTDKELEAFREELKHFEAKIEKHNHYQKQLEIAHEKLRHAESVGDGERVSRSREKHALLEGRTKELGYTVKKHLQDLSGRISRARHNEL	“net” +ve transport toward the brain side (A to B)	enhanced “net” +ve transport toward the brain side	164 % of control	–	Effect on B-to-A CoQ10 efflux [4]: inhibited the B-to-A efflux
